Results from US5962415A, “Compositions comprising a peptide inhibitor of nuclear protein translocation and an immunosuppressant and methods of use thereof” (Bristol-Myers Squibb Co., priority 1998, dated 1999).

How the values were obtained:
[1] = system: 70Z/3 murine leukemia pre-B cells; assay: LPS-stimulated surface antigen expression (κ Ig light chain, IL-2 receptor, CD45) in 70Z/3 cells; assay type: cell-based
Method: Expression of κ Ig, CD45, CD40, and the interleukin-2 receptor was assayed using standard enzyme-linked immunosorbent assays ("ELISAs") (see, Coligan et al. (eds.) (1991) Current Protocols in Immunology, Wiley & Sons, p. 2.10 or by FACS staining to measure cell-surface markers as described in Raff (1970) Immunology 19:637). Antibodies form cell surface markers were obtained from Pharmingen Co.
The effect of the SV40MEM polypeptide was compared with two additional polypeptides, […] (SEQ ID NO:2) (the "HIV-1MEM" polypeptide), which is composed of the membrane translocation domain of FGF flanked by the NLS from the HIV-1 matrix protein and […] (SEQ ID NO:3) (the "C-MYCMEM" polypeptide), which contains the NLS from the human c-myc oncoprotein (Chelsky et al. (1989), supra, and Dang et al. (1988), supra) using murine 70Z/3 pre-B cells.
Murine 70Z/3 cells (ATCC TlD-158) are a model cell line for analyzing the effects of compounds on B-cell differentiation. In response to S. typhosa LPS (Difco) or γ-interferon, these cells differentiate from surface κ immunoglobulin negative to κ Ig positive.
[…] of: (1) a peptide containing only the FGF signal sequence AAVALLPAVLLALLAP (SEQ ID NO:4) (the "MEM" peptide); (2) a polypeptide having the FGF signal sequence and the NLS of NF-κB p50 on the carboxy terminus of the signal sequence, namely, the NF-κBMEM polypeptide; (3) the SV40MEM polypeptide comprised of L-amino acids; or (4) the SV40MEM polypeptide comprised of D-amino acids. The cells were then incubated with LPS as described in Example 2 and assayed for expression of κ light chain expression.

IκB = IκB degradation in LPS-activated 70Z/3 cells (Western analysis); assay type: cell-based, murine; conditions: 2 μM, LPS 100 ng/ml for 0-120 min
Method: IκB is an inhibitor of NF-κB nuclear translocation. When cells are activated by the appropriate proinflammatory stimulus, e.g., cytokines or LPS, IκB is degraded. […] This experiment was done to explore the effect of the SV40MEM polypeptide on IKB degradation in murine 70Z/3 cells.
Murine 70Z/3 cells (5×10^7 cells) were incubated with the SV40MEM polypeptide (2 μM) or PBS. The two groups of cells were subdivided into aliquots and activated with LPS (100 ng/ml) for 0, 15, 30, 60, or 120 min. The cells were lysed in 200 μL lysing buffer (20 mM N-(2-hydroxyethyl)piperazine-N'-(2-ethanesulfonic acid) ("HEPES"), pH 7.2, 20 mM NaCl, 2.5 mM MgCI2, 0.1% nonylphenoxy polyethoxy ethanol ("NP-40")). The lysates were frozen until analyzed for the presence of IκB by Western analysis using an antibody directed to the carboxy terminus of IκB (Santa Cruz Corp., Santa Cruz, Calif.) according to the manufacturer's instructions.

PKKKRKVAAVALLPAVLLALLAPKKKRKVC [SV40MEM, FGF signal peptide hydrophobic region flanked by SV40 large T antigen NLS]
expression of CD45 ([1]; LPS-stimulated, FIG. 1A): no effect | expression of the interleukin-2 receptor ([1]; LPS-stimulated, FIG. 1A): no effect | inhibition of κ light chain expression ([1]; response to S. typhosa LPS, 1-hr pretreatment, FIG. 1A): 75-80% | effect of increasing LPS concentration on the inhibitory effect ([1]; κ Ig light chain production, FIG. 1C): can be overcome by increasing the concentration of LPS | degradation of IκB (IκB): no apparent degradation of IκB
